We go through eight compounds from US8883963B2 (Cadila Healthcare Limited, priority 2007, dated 2014).

The structures appear in SMILES notation. Starred links: 1 amine or outer side, 2 acyl side, 3 side chain; linkers in the order of their positions; H or OH if unused. Non-standard residues stand in square brackets, D forms with d. Residues, ends and D or L forms follow the SMILES beside them. ξ: configuration not given here. *: point of attachment. Leu(5,5,5,5',5',5'-F6) = N[C@@H](CC(C(F)(F)F)C(F)(F)F)C(=O)O; X4 = CCc1cc(OC)ccc1-c1ccc(CC(CNC(CCCc2ccccc2F)C(N)=O)N*)cc1; ξBip(2'-Et-4'-OMe) = CCc1cc(OC)ccc1-c1ccc(CC(N)C(=O)O)cc1; ξNva(5-(3,5-Me2-Ph)) = Cc1cc(C)cc(CCCC(N)C(=O)O)c1; ξNva(5-(4-Cl-2-MePh)) = Cc1cc(Cl)ccc1CCCC(N)C(=O)O; ξNva(5-(3-Cl-Ph)) = NC(CCCc1cccc(Cl)c1)C(=O)O; ξαMePhe(2-F) = CC(N)(Cc1ccccc1F)C(=O)O; X2 = O=C(C(CCCc1ccccc1Cl)N[*:1])[*:2]; aThr = C[C@H](O)[C@H](N)C(=O)O; Ac3c = NC1(C(=O)O)CC1; Aib = CC(C)(N)C(=O)O Some results are limits rather than exact numbers.

Common to all, as to assay type: in vitro ADME
The nature of series [1]: Stability in simulated gastric fluid. The following applies: 2 μM peptidomimetic, simulated gastric fluid pH 1.5, 37° C.; for half-life at 2 μM: read-out: half-life (t1/2) when incubated with simulated gastric fluid. As for the experimental part: (§1) Reactions were terminated by the addition of TFA/H2O (15 mL, 10% (v/v)). […] The column was equilibrated with TFA/H20, at a flow rate of 1 mL/min.

Series [2] is described as follows: Stability in human plasma. The following applies: 2 μM peptidomimetic, pooled human plasma, 37° C.; for half-life at 2 μM: pH 7.8, read-out: half-life (t1/2) when incubated with human plasma. The procedure: as §1
The nature of series [3]: Stability in simulated intestinal fluid. The following applies: 2 μM peptidomimetic, simulated intestinal fluid pH 7.5, 37° C.; for half-life at 2 μM: read-out: half-life (t1/2) when incubated with simulated intestinal fluid. The procedure:
as §1

In another series the target is DPP IV (Homo sapiens, UniProt P27487). The series can be described thus: Stability against DPP IV enzyme. The following applies: 37° C.; for % degradation of peptidomimetics in 24 h when incubated with DPP-IV enzyme: 2 μM peptidomimetic; for half-life at 2 μM: DPP IV enzyme, pH 7.8, 2 μM peptidomimetic, read-out: half-life (t1/2) when incubated with DPP-IV enzyme. The procedure: as §1
DPP IV, sequence (P27487 whole entry, species assumed): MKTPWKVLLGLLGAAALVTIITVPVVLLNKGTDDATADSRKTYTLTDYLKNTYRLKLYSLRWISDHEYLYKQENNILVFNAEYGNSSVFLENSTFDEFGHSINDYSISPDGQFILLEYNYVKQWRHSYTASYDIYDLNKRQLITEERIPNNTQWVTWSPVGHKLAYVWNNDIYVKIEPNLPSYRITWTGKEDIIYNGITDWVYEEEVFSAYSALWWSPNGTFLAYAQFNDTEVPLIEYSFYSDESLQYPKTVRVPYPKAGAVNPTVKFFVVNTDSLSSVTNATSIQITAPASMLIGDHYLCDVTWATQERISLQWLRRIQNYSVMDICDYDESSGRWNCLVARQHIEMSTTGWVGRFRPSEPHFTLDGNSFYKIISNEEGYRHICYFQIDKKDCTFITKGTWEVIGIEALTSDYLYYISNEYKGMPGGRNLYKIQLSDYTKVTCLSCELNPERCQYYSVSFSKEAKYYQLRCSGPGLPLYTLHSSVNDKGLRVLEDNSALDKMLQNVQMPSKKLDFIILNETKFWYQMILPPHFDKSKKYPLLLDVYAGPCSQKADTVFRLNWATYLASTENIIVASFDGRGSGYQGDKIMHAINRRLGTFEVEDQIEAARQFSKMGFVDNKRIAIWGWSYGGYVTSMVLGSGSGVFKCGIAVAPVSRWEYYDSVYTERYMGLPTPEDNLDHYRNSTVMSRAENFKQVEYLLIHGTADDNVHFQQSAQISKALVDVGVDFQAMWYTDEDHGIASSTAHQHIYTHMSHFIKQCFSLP

Series [4] in a line: Stability in liver microsomes. The following applies: 2 μM peptidomimetic, human liver microsomes, 37° C.; for half-life at 2 μM: pH 7.8, read-out: half-life (t1/2) when incubated with liver microsomes. The procedure: as §1

For the compound `CCc1cc(OC)ccc1-c1ccc(CC(NC(=O)[C@H](CC(=O)O)NC(=O)[C@H](CO)NC(=O)[C@@H](NC(=O)[C@H](Cc2ccccc2)NC(=O)[C@@H](NC(=O)CNC(=O)[C@H](CCC(N)=O)NC(=O)C2(C)CCCN2C(=O)[C@@H](N)Cc2c[nH]cn2)[C@@H](C)O)[C@@H](C)O)C(=O)NC(CCCc2ccc(Cl)cc2C)C(N)=O)cc1` (single isomer, unassigned) [compound 12], in series [1], the “half-life (t1/2) when incubated with simulated gastric fluid” value (from here on “half-life … with simulated gastric fluid”) is “(8) h” and the “% degradation of peptidomimetics in 24 h when incubated with simulated gastric fluid” value (“% degradation … with simulated gastric fluid” for short) is listed as 14%. In series [2], the “% degradation of peptidomimetics in 24 h when incubated with human plasma” value (“% degradation … with human plasma” below) worked out at 78% and the half-life at 2 μM was found to be 8 h. For the same compound, in series [3], the “half-life (t1/2) when incubated with simulated intestinal fluid” value (“half-life … with simulated intestinal fluid” below) is on record as “(6) h” and the “% degradation of peptidomimetics in 24 h when incubated with simulated intestinal fluid” value (from here on “% degradation … with simulated intestinal fluid”) is on record as 43%. Also, at DPP IV, the “% degradation of peptidomimetics in 24 h when incubated with DPP-IV enzyme” value (shortened to “% degradation … with DPP-IV enzyme”) is listed as 76% and the half-life at 2 μM worked out at 9 h. Moreover, in series [4], the “% degradation of peptidomimetics in 24 h when incubated with liver microsomes” value (shortened to “% degradation … with liver microsomes”) worked out at 80% and the half-life at 2 μM was determined as 1 h.
In the case of `CCc1cc(OC)ccc1-c1ccc(CC(NC(=O)[C@H](CC(=O)O)NC(=O)[C@H](CO)NC(=O)[C@@H](NC(=O)[C@H](Cc2ccccc2)NC(=O)[C@@H](NC(=O)CNC(=O)[C@H](CCC(N)=O)NC(=O)C2(NC(=O)[C@@H](N)Cc3c[nH]cn3)CC2)[C@@H](C)O)[C@@H](C)O)C(=O)NC(CCCc2ccc(F)cc2F)C(N)=O)cc1` (single isomer, unassigned) [compound 70], in series [1], the “half-life … with simulated gastric fluid” value is listed as “(8) h” and the “% degradation … with simulated gastric fluid” value is 14%. Moreover, in series [2], the “% degradation … with human plasma” value is given as 71% and the half-life at 2 μM was determined as 8 h. Moreover, in series [3], the “half-life … with simulated intestinal fluid” value is reported as “(6) h” and the “% degradation … with simulated intestinal fluid” value is recorded as 40%. On DPP IV, the “% degradation … with DPP-IV enzyme” value was 70% and the half-life at 2 μM was determined as 9 h. Moreover, in series [4], the “% degradation … with liver microsomes” value came out at 78% and the half-life at 2 μM came to 1 h.
Take `CCc1cc(OC)ccc1-c1ccc(CC(CNC(CCCc2ccccc2)C(N)=O)NC[C@H](CC(=O)O)NC(=O)[C@H](CO)NC(=O)[C@@H](NC(=O)C(C)(Cc2ccccc2F)NC(=O)[C@@H](NC(=O)CNC(=O)[C@H](CCC(N)=O)NC(=O)C(C)(C)NC(=O)[C@@H](N)Cc2c[nH]cn2)[C@H](C)O)[C@H](C)O)cc1` (single isomer, unassigned) [compound 201]: in series [1], the “% degradation … with simulated gastric fluid” value is reported as 43% and the half-life at 2 μM is 4 h. In addition, in series [2], the “% degradation … with human plasma” value is 00% and the half-life at 2 μM was over 24 h. For the same compound, in series [3], the “% degradation … with simulated intestinal fluid” value is 00% and the half-life at 2 μM is over 24 h. Moreover, at DPP IV, the “% degradation … with DPP-IV enzyme” value turned out to be 00% and the half-life at 2 μM was over 24 h. For the same compound, in series [4], the “% degradation … with liver microsomes” value worked out at 84% and the half-life at 2 μM stood at 2 h.
`CCc1cc(OC)ccc1-c1ccc(CC(NC(=O)[C@H](CC(=O)O)NC(=O)[C@H](CO)NC(=O)[C@@H](NC(=O)[C@H](Cc2ccccc2)NC(=O)[C@@H](NC(=O)CNC(=O)[C@H](CCC(N)=O)NC(=O)[C@H](CO)NC(=O)[C@@H](N)Cc2c[nH]cn2)[C@@H](C)O)[C@@H](C)O)C(=O)NC(CCCc2cccc(Cl)c2)C(N)=O)cc1` (stereo partly drawn) [compound 7] (H-HSQGTFTSD[ξBip(2'-Et-4'-OMe)][ξNva(5-(3-Cl-Ph))]-NH2): in series [1], the “% degradation … with simulated gastric fluid” value is 11% and the half-life at 2 μM was 7 h. In addition, in series [2], the “% degradation … with human plasma” value is listed as 69% and the half-life at 2 μM worked out at 8 h. Besides, in series [3], the “half-life … with simulated intestinal fluid” value is given as “(6) h” and the “% degradation … with simulated intestinal fluid” value is on record as 43%. Further, on DPP IV, the “% degradation … with DPP-IV enzyme” value was determined as 71% and the half-life at 2 μM turned out to be 8 h. Moreover, in series [4], the “% degradation … with liver microsomes” value came to 77% and the half-life at 2 μM amounted to 2 h.
For the compound `CCc1cc(OC)ccc1-c1ccc(CC(NC(=O)[C@H](CC(=O)O)NC(=O)[C@H](CO)NC(=O)[C@@H](NC(=O)[C@H](Cc2ccccc2)NC(=O)[C@@H](NC(=O)CNC(=O)[C@H](CCC(N)=O)NC(=O)[C@H](CO)NC(=O)[C@@H](N)Cc2c[nH]cn2)[C@@H](C)O)[C@@H](C)O)C(=O)NC(CCCc2ccc(Cl)cc2C)C(N)=O)cc1` (stereo partly drawn) [compound 8] (H-HSQGTFTSD[ξBip(2'-Et-4'-OMe)][ξNva(5-(4-Cl-2-MePh))]-NH2), in series [1], the “% degradation … with simulated gastric fluid” value is listed as 00% and the half-life at 2 μM was over 24 h. In series [2], the “% degradation … with human plasma” value came out at 00% and the half-life at 2 μM was over 24 h. Also, in series [3], the “% degradation … with simulated intestinal fluid” value is 00% and the half-life at 2 μM was over 24 h. On DPP IV, the “% degradation … with DPP-IV enzyme” value is 00% and the half-life at 2 μM is over 24 h. Also, in series [4], the “half-life (t1/2) when incubated with liver microsomes” value is given as “(5) h” and the “% degradation … with liver microsomes” value was 35%.
Turning to `CCc1cc(OC)ccc1-c1ccc(CC(NC(=O)[C@H](CC(=O)O)NC(=O)[C@H](CO)NC(=O)[C@@H](NC(=O)[C@H](Cc2ccccc2)NC(=O)[C@@H](NC(=O)CNC(=O)[C@H](CCC(N)=O)NC(=O)[C@H](C)NC(=O)[C@@H](N)Cc2c[nH]cn2)[C@@H](C)O)[C@@H](C)O)C(=O)NC(CCCc2cc(C)cc(C)c2)C(N)=O)cc1` (stereo partly drawn) [compound 14] (H-HAQGTFTSD[ξBip(2'-Et-4'-OMe)][ξNva(5-(3,5-Me2-Ph))]-NH2), in series [1], the “half-life … with simulated gastric fluid” value is “(8) h” and the “% degradation … with simulated gastric fluid” value is 12%. Besides, in series [2], the “% degradation … with human plasma” value turned out to be 75% and the half-life at 2 μM stood at 8 h. For the same compound, in series [3], the “half-life … with simulated intestinal fluid” value was “(6) h” and the “% degradation … with simulated intestinal fluid” value is reported as 46%. Besides, on DPP IV, the “% degradation … with DPP-IV enzyme” value is reported as 74% and the half-life at 2 μM turned out to be 9 h. Besides, in series [4], the “% degradation … with liver microsomes” value was 83% and the half-life at 2 μM was found to be 1 h.
For the compound `CCc1cc(OC)ccc1-c1ccc(CC(NC(=O)[C@H](CC(=O)O)NC(=O)[C@H](CO)NC(=O)[C@@H](NC(=O)[C@H](Cc2ccccc2)NC(=O)[C@@H](NC(=O)CNC(=O)[C@H](CCC(N)=O)NC(=O)C2(NC(=O)[C@@H](N)Cc3c[nH]cn3)CC2)[C@@H](C)O)[C@@H](C)O)C(=O)NC(CCCc2ccccc2Cl)C(N)=O)cc1` (stereo partly drawn) [compound 74] (H-H[Ac3c]QGTFTSD[ξBip(2'-Et-4'-OMe)][X2]-NH2), in series [1], the “% degradation … with simulated gastric fluid” value is given as 100% and the half-life at 2 μM was 0.5 h. In series [2], the “half-life (t1/2) when incubated with human plasma” value is “(9) h” and the “% degradation … with human plasma” value was determined as 78%. Further, in series [3], the “% degradation … with simulated intestinal fluid” value is given as 100% and the half-life at 2 μM was 0.5 h. For the same compound, the “% degradation … with DPP-IV enzyme” value at DPP IV is reported as 76%. In series [4], the “% degradation … with liver microsomes” value was 100% and the half-life at 2 μM was determined as 0.5 h.
For `CCc1cc(OC)ccc1-c1ccc(CC(CNC(CCCc2ccccc2F)C(N)=O)NC(=O)[C@H](CC(=O)O)NC(=O)[C@H](CO)NC(=O)[C@@H](NC(=O)C(C)(Cc2ccccc2F)NC(=O)[C@@H](NC(=O)CNC(=O)[C@H](CC(C(F)(F)F)C(F)(F)F)NC(=O)C(C)(C)NC(=O)[C@@H](N)Cc2c[nH]cn2)[C@H](C)O)[C@H](C)O)cc1` (stereo partly drawn) [compound 214] (H-H[Aib][Leu(5,5,5,5',5',5'-F6)]G[aThr][ξαMePhe(2-F)][aThr]SD-X4), in series [1], the “% degradation … with simulated gastric fluid” value was 100% and the half-life at 2 μM is 0.5 h. In series [2], the “half-life (t1/2) when incubated with human plasma” value was “(9) h” and the “% degradation … with human plasma” value stood at 78%. In addition, in series [3], the “% degradation … with simulated intestinal fluid” value is recorded as 100% and the half-life at 2 μM was 0.5 h. Moreover, on DPP IV, the “% degradation … with DPP-IV enzyme” value stood at 76%. Further, in series [4], the “% degradation … with liver microsomes” value was found to be 100% and the half-life at 2 μM came out at 0.5 h.
